Experimental data taken from ChEMBL document CHEMBL1201862, “PubChem BioAssay data set” (2004).
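1) Cells in 96-well plates. 2) Compound, 48 h, 5 concentrations. 3) Linear interpolation between surrounding doses. 4) Unreached endpoint = highest concentration. GI50 marks 50% less growth.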 Calls of active or inactive are those of the source. No stated cut-off is given here; in the data, active = GI50 up to about 1.1 µM and inactive = higher.

Key:
Experiment in all cases: NCI tumour cell line growth inhibition, 48 h
786-0 = system: 786-0
A498 = system: A498
A549 = system: A549
ACHN = system: ACHN
CAKI-1 = system: CAKI-1
CCRF-CEM = system: CCRF-CEM
COLO 205 = system: COLO 205
DMS-114 = system: DMS-114
DMS-273 = system: DMS-273
EKVX = system: EKVX
HCC 2998 = system: HCC 2998
HCT-15 = system: HCT-15
HL-60 = system: HL-60
HOP-18 = system: HOP-18
HOP-62 = system: HOP-62
HOP-92 = system: HOP-92
HT-29 = system: HT-29
IGROV-1 = system: IGROV-1
K562 = system: K562
KM12 = system: KM12
LXFL 529 = system: LXFL 529
M14 = system: M14
M19-MEL = system: M19-MEL
MOLT-4 = system: MOLT-4
Malme-3M = system: Malme-3M
NCI-H23 = system: NCI-H23
NCI-H460 = system: NCI-H460
NCI-H522 = system: NCI-H522
OVCAR-3 = system: OVCAR-3
OVCAR-4 = system: OVCAR-4
OVCAR-5 = system: OVCAR-5
OVCAR-8 = system: OVCAR-8
RPMI-8226 = system: RPMI-8226
RXF 393 = system: RXF 393
RXF 631 = system: RXF 631
SF-268 = system: SF-268
SF-295 = system: SF-295
SF-539 = system: SF-539
SK-MEL-28 = system: SK-MEL-28
SK-MEL-2 = system: SK-MEL-2
SK-MEL-5 = system: SK-MEL-5
SK-OV-3 = system: SK-OV-3
SN12C = system: SN12C
SNB-19 = system: SNB-19
SNB-75 = system: SNB-75
SNB-78 = system: SNB-78
SW-620 = system: SW-620
TK-10 = system: TK-10
U-251 = system: U-251
UACC-257 = system: UACC-257
UACC-62 = system: UACC-62
UO-31 = system: UO-31
XF498 = system: XF498
DLD-1 = system: DLD-1
HCT-116 = system: HCT-116
LOX IMVI = system: LOX IMVI
NCI-H226 = system: NCI-H226
SR = system: SR
KM-20L2 = system: KM-20L2

With Oc1cc(O)c(Oc2cccc(O)c2O)c(O)c1 the GI50 (786-0) was 42.6 µM (inactive), the GI50 (A498) was > 100 µM (inactive) and the GI50 (A549) was > 100 µM (inactive). The GI50 (ACHN) was > 100 µM (inactive), the GI50 (CAKI-1) was > 100 µM (inactive) and the GI50 (CCRF-CEM) was 33.3 µM (inactive). The GI50 (COLO 205) was > 100 µM (inactive), the GI50 (DMS-114) was 57.7 µM (inactive) and the GI50 (DMS-273) was > 100 µM (inactive). The GI50 (EKVX) was > 100 µM (inactive), the GI50 (HCC 2998) was > 100 µM (inactive) and the GI50 (HCT-15) was over 100 µM. The GI50 (HL-60) was 99.5 µM (inactive), the GI50 (HOP-18) was > 100 µM (inactive) and the GI50 (HOP-62) was > 100 µM (inactive). For the same molecule, the GI50 (HOP-92) was > 100 µM (inactive), the GI50 (HT-29) was > 100 µM (inactive) and the GI50 (IGROV-1) was > 100 µM (inactive). For the same molecule, the GI50 (K562) was 35 µM (inactive), the GI50 (KM12) was > 100 µM (inactive) and the GI50 (LXFL 529) was > 100 µM (inactive). The GI50 (M14) was > 100 µM (inactive), the GI50 (M19-MEL) was 21.1 µM (inactive) and the GI50 (MOLT-4) was > 100 µM (inactive). The GI50 (Malme-3M) was > 100 µM (inactive), the GI50 (NCI-H23) was > 100 µM (inactive) and the GI50 (NCI-H460) was > 100 µM (inactive). For the same molecule, the GI50 (NCI-H522) was 49.7 µM (inactive), the GI50 (OVCAR-3) was 73.3 µM (inactive) and the GI50 (OVCAR-4) was 15.5 µM (inactive). For the same molecule, the GI50 (OVCAR-5) was > 100 µM (inactive), the GI50 (OVCAR-8) was > 100 µM (inactive) and the GI50 (RPMI-8226) was > 100 µM (inactive). For the same molecule, the GI50 (RXF 393) was > 100 µM (inactive), the GI50 (RXF 631) was > 100 µM (inactive) and the GI50 (SF-268) was > 100 µM (inactive). The GI50 (SF-295) was > 100 µM (inactive), the GI50 (SF-539) was > 100 µM (inactive) and the GI50 (SK-MEL-28) was > 100 µM (inactive). The GI50 (SK-MEL-2) was 37.8 µM (inactive), the GI50 (SK-MEL-5) was 18.6 µM (inactive) and the GI50 (SK-OV-3) was > 100 µM (inactive). For the same molecule, the GI50 (SN12C) was > 100 µM (inactive), the GI50 (SNB-19) was > 100 µM (inactive) and the GI50 (SNB-75) was 45.8 µM (inactive). The GI50 (SNB-78) was > 100 µM (inactive), the GI50 (SW-620) was 55.6 µM (inactive) and the GI50 (TK-10) was > 100 µM (inactive). The GI50 (U-251) was > 100 µM (inactive), the GI50 (UACC-257) was > 100 µM (inactive) and the GI50 (UACC-62) was 35.6 µM (inactive). For the same molecule, the GI50 (UO-31) was > 100 µM (inactive) and the GI50 (XF498) was 29.5 µM (inactive).

In the case of CC(=O)/C(=C\c1ccccc1)C(=O)Nc1ccccc1, the GI50 (786-0) is reported as > 100 µM (inactive), the GI50 (A549) is reported as > 100 µM (inactive) and the GI50 (ACHN) is reported as > 100 µM (inactive). The GI50 (CAKI-1) was > 100 µM (inactive), the GI50 (CCRF-CEM) was > 100 µM (inactive) and the GI50 (DLD-1) was > 100 µM (inactive). The GI50 (DMS-114) was > 100 µM (inactive), the GI50 (EKVX) was > 100 µM (inactive) and the GI50 (HCC 2998) was > 100 µM (inactive). The GI50 (HCT-116) was > 100 µM (inactive), the GI50 (HL-60) was > 100 µM (inactive) and the GI50 (HOP-18) was > 100 µM (inactive). The GI50 (HOP-62) was > 100 µM (inactive), the GI50 (HOP-92) was > 100 µM (inactive) and the GI50 (HT-29) was > 100 µM (inactive). For the same molecule, the GI50 (IGROV-1) was > 100 µM (inactive), the GI50 (K562) was > 100 µM (inactive) and the GI50 (KM12) was > 100 µM (inactive). The GI50 (LOX IMVI) was > 100 µM (inactive), the GI50 (LXFL 529) was > 100 µM (inactive) and the GI50 (M14) was > 100 µM (inactive). For the same molecule, the GI50 (M19-MEL) was > 100 µM (inactive), the GI50 (MOLT-4) was > 100 µM (inactive) and the GI50 (Malme-3M) was > 100 µM (inactive). The GI50 (NCI-H226) was > 100 µM (inactive), the GI50 (NCI-H23) was > 100 µM (inactive) and the GI50 (NCI-H460) was > 100 µM (inactive). The GI50 (NCI-H522) was > 100 µM (inactive), the GI50 (OVCAR-3) was > 100 µM (inactive) and the GI50 (OVCAR-4) was > 100 µM (inactive). The GI50 (OVCAR-5) was > 100 µM (inactive), the GI50 (OVCAR-8) was > 100 µM (inactive) and the GI50 (RPMI-8226) was > 100 µM (inactive). The GI50 (RXF 393) was > 100 µM (inactive), the GI50 (RXF 631) was > 100 µM (inactive) and the GI50 (SF-268) was > 100 µM (inactive). The GI50 (SF-295) was 44.1 µM (inactive), the GI50 (SF-539) was > 100 µM (inactive) and the GI50 (SK-MEL-2) was > 100 µM (inactive). For the same molecule, the GI50 (SK-MEL-5) was > 100 µM (inactive), the GI50 (SK-OV-3) was > 100 µM (inactive) and the GI50 (SN12C) was > 100 µM (inactive). For the same molecule, the GI50 (SNB-19) was > 100 µM (inactive), the GI50 (SNB-78) was > 100 µM (inactive) and the GI50 (SR) was > 100 µM (inactive). The GI50 (SW-620) was > 100 µM (inactive), the GI50 (TK-10) was > 100 µM (inactive) and the GI50 (U-251) was > 100 µM (inactive). For the same molecule, the GI50 (UACC-257) was > 100 µM (inactive), the GI50 (UACC-62) was > 100 µM (inactive) and the GI50 (UO-31) was > 100 µM (inactive). For the same molecule, the GI50 (XF498) was > 100 µM (inactive).

In the case of NC(=O)Nc1c([N+](=O)[O-])cc(C(F)(F)F)cc1[N+](=O)[O-], the GI50 (786-0) is reported as > 100 µM (inactive), the GI50 (A498) is reported as > 100 µM (inactive) and the GI50 (A549) is reported as > 100 µM (inactive). For the same molecule, the GI50 (ACHN) was > 100 µM (inactive), the GI50 (CAKI-1) was > 100 µM (inactive) and the GI50 (CCRF-CEM) was > 100 µM (inactive). The GI50 (COLO 205) was 34.5 µM (inactive), the GI50 (DMS-273) was > 100 µM (inactive) and the GI50 (EKVX) was > 100 µM (inactive). The GI50 (HCT-116) was 59.4 µM (inactive), the GI50 (HCT-15) was 65.8 µM and the GI50 (HL-60) was 33.7 µM (inactive). For the same molecule, the GI50 (HOP-62) was > 100 µM (inactive), the GI50 (HOP-92) was 40.5 µM (inactive) and the GI50 (HT-29) was 33.7 µM (inactive). For the same molecule, the GI50 (IGROV-1) was > 100 µM (inactive), the GI50 (K562) was 56.2 µM (inactive) and the GI50 (KM-20L2) was 29.2 µM (inactive). For the same molecule, the GI50 (KM12) was 57.8 µM (inactive), the GI50 (LOX IMVI) was 44.7 µM (inactive) and the GI50 (LXFL 529) was > 100 µM (inactive). The GI50 (M14) was > 100 µM (inactive), the GI50 (MOLT-4) was > 100 µM (inactive) and the GI50 (NCI-H226) was > 100 µM (inactive). The GI50 (NCI-H23) was 43.8 µM (inactive), the GI50 (NCI-H460) was 48.1 µM (inactive) and the GI50 (NCI-H522) was 32.6 µM (inactive). The GI50 (OVCAR-3) was 28.8 µM (inactive), the GI50 (OVCAR-4) was 63.1 µM (inactive) and the GI50 (OVCAR-5) was > 100 µM (inactive). The GI50 (OVCAR-8) was 57.5 µM (inactive), the GI50 (RPMI-8226) was > 100 µM (inactive) and the GI50 (RXF 393) was > 100 µM (inactive). For the same molecule, the GI50 (RXF 631) was 65.9 µM (inactive), the GI50 (SF-268) was > 100 µM (inactive) and the GI50 (SF-295) was > 100 µM (inactive). The GI50 (SF-539) was > 100 µM (inactive), the GI50 (SK-MEL-28) was > 100 µM (inactive) and the GI50 (SK-MEL-2) was > 100 µM (inactive). The GI50 (SK-MEL-5) was 49.3 µM (inactive), the GI50 (SN12C) was > 100 µM (inactive) and the GI50 (SNB-19) was > 100 µM (inactive). The GI50 (SNB-78) was > 100 µM (inactive), the GI50 (SR) was > 100 µM (inactive) and the GI50 (SW-620) was 51.2 µM (inactive). The GI50 (TK-10) was > 100 µM (inactive), the GI50 (U-251) was > 100 µM (inactive) and the GI50 (UACC-257) was 72.3 µM (inactive). The GI50 (UACC-62) was 19.4 µM (inactive), the GI50 (UO-31) was > 100 µM (inactive) and the GI50 (XF498) was 53.6 µM (inactive).
